Assay results published in EP3539977B1, “ENZYMES WITH CHLOROGENIC ACID ESTERASE ACTIVITY AND FERULOYL ESTERASE ACTIVITY” (SternEnzym GmbH & Co. KG, priority 2014, dated 2016).
Values joined by “and” are separate entries in the source; they are usually repeats but may differ in a detail not shown here. Equal values may be shown once.

Molecular target: T1, UmChlE (Mycosarcoma maydis, UniProt A0A060S684, P492L)
T1 construct: purification of the chlorogenic acid esterase UmChlE from culture supernatant of U. maydis was accomplished by three complementary separation steps; made in house; host or cells: Ustilago maydis itself (native producer), culture supernatant; Q Sepharose FF, preparative IEF, polyamide column
Test: Kinetic parameters of UmChlE from initial hydrolysis rates
Assay type: biochemical, Ustilago maydis
Settings: 0.005 - 1 mM substrate, 60 min, 37 °C, pH 7.5
Protocol: Km and vmax values were calculated with non-linear regression using SigmaPlot 10.0 (Systat Software Inc., Chicago, USA). Blanks were carried out for all assays using water instead of enzyme. For calculation of kcat the molecular mass was determined using denaturing SDS-PAGE.
Kinetic properties were determined from initial hydrolysis rates for the most preferred substrates chlorogenic acid, MFA and MpCA. […] Consequently, the catalytic efficiency (kca/Km), a good indicator for enzyme efficiency and specificity, was better for chlorogenic acid than for the two synthetic substrates.

Structure (SMILES)	Km [µM]	Km (listed as MpCA)
O=C(/C=C/c1ccc(O)c(O)c1)O[C@@H]1C[C@](O)(C(=O)O)C[C@@H](O)[C@H]1O [chlorogenic acid]	19.6	–
COC(=O)/C=C/c1ccc(O)c(OC)c1 [methyl ferulate]	102	–
COC(=O)/C=C/c1ccc(O)cc1 [methyl p-coumarate]	–	64.1 µM and 64 µM
